Experimental data from the supplement of paper PMC10307832.

Experiments:
Test in all cases: relative viability (nuclei count vs DMSO), 5 days (fraction); higher = more cells survive
A549 = system: A549
Outline: (§1)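 Lung cancer cell lines were pin-tool dosed in 1536-well plates on the day after seeding, with either a lone drug or a fixed anchor-drug dose plus five library-drug doses (not always all listed) in √10 steps. Nuclei were counted on 4× images after 5 days. Relative viability is the ratio of treated-well to vehicle-well nuclei counts, with each value a median of duplicate plates.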

COR-L23 = system: COR-L23
Outline: as §1

Calu-6 = system: Calu-6
Outline: as §1

ChaGo-K-1 = system: ChaGo-K-1
Outline: as §1

EBC-1 = system: EBC-1
Outline: as §1

EPLC-272H = system: EPLC-272H
Outline: as §1

HCC-366 = system: HCC-366
Outline: as §1

IA-LM = system: IA-LM
Outline: as §1

NCI-H1299 = system: NCI-H1299
Outline: as §1

NCI-H1703 = system: NCI-H1703
Outline: as §1

NCI-H1915 = system: NCI-H1915
Outline: as §1

NCI-H838 = system: NCI-H838
Outline: as §1

COCC1(CO)C(=O)C2CCN1CC2 (configuration not stated) [PRIMA-1MET] + CS(=O)(=O)N1CCN(Cc2cc3nc(-c4cccc5[nH]ncc45)nc(N4CCOCC4)c3s2)CC1 [Pictilisib] (partner 1 µM)
relative viability (A549; first compound 0.2 µM): 0.581 | relative viability (A549; first compound 0.6325 µM): 0.403 | relative viability (A549; first compound 2 µM): 0.497 | relative viability (A549; first compound 6.325 µM): 0.543 | relative viability (A549; first compound 20 µM): 0.421 | relative viability (COR-L23; first compound 0.2 µM): 0.77 | relative viability (COR-L23; first compound 0.6325 µM): 0.76 | relative viability (COR-L23; first compound 2 µM): 0.765 | relative viability (COR-L23; first compound 6.325 µM): 0.786 | relative viability (COR-L23; first compound 20 µM): 0.0196 | relative viability (Calu-6; first compound 0.2 µM): 0.945 | relative viability (Calu-6; first compound 0.6325 µM): 0.873 | relative viability (Calu-6; first compound 2 µM): 1.07 | relative viability (Calu-6; first compound 6.325 µM): 0.917 | relative viability (Calu-6; first compound 20 µM): 0.563 | relative viability (ChaGo-K-1; first compound 0.2 µM): 0.732 | relative viability (ChaGo-K-1; first compound 0.6325 µM): 0.468 | relative viability (ChaGo-K-1; first compound 2 µM): 0.84 | relative viability (ChaGo-K-1; first compound 6.325 µM): 0.752 | relative viability (ChaGo-K-1; first compound 20 µM): 0.328 | relative viability (EBC-1; first compound 0.2 µM): 0.414 | relative viability (EBC-1; first compound 0.6325 µM): 0.381 | relative viability (EBC-1; first compound 2 µM): 0.402 | relative viability (EBC-1; first compound 6.325 µM): 0.434 | relative viability (EBC-1; first compound 20 µM): 0.12 | relative viability (EPLC-272H; first compound 0.2 µM): 0.295 | relative viability (EPLC-272H; first compound 0.6325 µM): 0.251 | relative viability (EPLC-272H; first compound 2 µM): 0.234 | relative viability (EPLC-272H; first compound 6.325 µM): 0.305 | relative viability (EPLC-272H; first compound 20 µM): 0.124 | relative viability (HCC-366; first compound 0.2 µM): 0.204 | relative viability (HCC-366; first compound 0.6325 µM): 0.118 | relative viability (HCC-366; first compound 6.325 µM): 0.123 | relative viability (HCC-366; first compound 20 µM): 0.0846 | relative viability (IA-LM; first compound 0.2 µM): 0.476 | relative viability (IA-LM; first compound 0.6325 µM): 0.253 | relative viability (IA-LM; first compound 2 µM): 0.355 | relative viability (IA-LM; first compound 6.325 µM): 0.404 | relative viability (IA-LM; first compound 20 µM): 0.326 | relative viability (NCI-H1299; first compound 0.2 µM): 0.956 | relative viability (NCI-H1299; first compound 0.6325 µM): 0.782 | relative viability (NCI-H1299; first compound 2 µM): 0.345 | relative viability (NCI-H1299; first compound 6.325 µM): 0.808 | relative viability (NCI-H1299; first compound 20 µM): 0.0251 | relative viability (NCI-H1703; first compound 0.2 µM): 0.275 | relative viability (NCI-H1703; first compound 2 µM): 0.255 | relative viability (NCI-H1703; first compound 6.325 µM): 0.293 | relative viability (NCI-H1703; first compound 20 µM): 0.0333 | relative viability (NCI-H1915; first compound 0.2 µM): 0.712 | relative viability (NCI-H1915; first compound 0.6325 µM): 0.785 | relative viability (NCI-H1915; first compound 2 µM): 0.625 | relative viability (NCI-H1915; first compound 6.325 µM): 0.705 | relative viability (NCI-H1915; first compound 20 µM): 0.932 | relative viability (NCI-H838; first compound 0.2 µM): 0.46 | relative viability (NCI-H838; first compound 0.6325 µM): 0.448 | relative viability (NCI-H838; first compound 2 µM): 0.355 | relative viability (NCI-H838; first compound 6.325 µM): 0.589 | relative viability (NCI-H838; first compound 20 µM): 0.632

COCC1(CO)C(=O)C2CCN1CC2 (configuration not stated) [PRIMA-1MET] + CC1(C)CCC(c2ccc(Cl)cc2)=C(CN2CCN(c3ccc(C(=O)NS(=O)(=O)c4ccc(N[C@H](CCN5CCOCC5)CSc5ccccc5)c(S(=O)(=O)C(F)(F)F)c4)cc3)CC2)C1 [Navitoclax] (partner 0.5 µM)
relative viability (A549; first compound 0.2 µM): 1.35 | relative viability (A549; first compound 0.6325 µM): 1.09 | relative viability (A549; first compound 2 µM): 1.23 | relative viability (A549; first compound 6.325 µM): 1.16 | relative viability (A549; first compound 20 µM): 1.08 | relative viability (COR-L23; first compound 0.2 µM): 1.1 | relative viability (COR-L23; first compound 0.6325 µM): 0.93 | relative viability (COR-L23; first compound 2 µM): 1.06 | relative viability (COR-L23; first compound 6.325 µM): 1.03 | relative viability (COR-L23; first compound 20 µM): 0.023 | relative viability (Calu-6; first compound 0.2 µM): 0.97 | relative viability (Calu-6; first compound 0.6325 µM): 0.823 | relative viability (Calu-6; first compound 2 µM): 0.845 | relative viability (Calu-6; first compound 6.325 µM): 0.781 | relative viability (Calu-6; first compound 20 µM): 0.305 | relative viability (ChaGo-K-1; first compound 0.2 µM): 1.08 | relative viability (ChaGo-K-1; first compound 0.6325 µM): 0.667 | relative viability (ChaGo-K-1; first compound 2 µM): 1.11 | relative viability (ChaGo-K-1; first compound 6.325 µM): 1.11 | relative viability (ChaGo-K-1; first compound 20 µM): 0.404 | relative viability (EBC-1; first compound 0.2 µM): 0.379 | relative viability (EBC-1; first compound 0.6325 µM): 0.37 | relative viability (EBC-1; first compound 2 µM): 0.427 | relative viability (EBC-1; first compound 6.325 µM): 0.416 | relative viability (EBC-1; first compound 20 µM): 0.151 | relative viability (EPLC-272H; first compound 0.2 µM): 1.33 | relative viability (EPLC-272H; first compound 0.6325 µM): 0.933 | relative viability (EPLC-272H; first compound 2 µM): 1.15 | relative viability (EPLC-272H; first compound 6.325 µM): 1.15 | relative viability (EPLC-272H; first compound 20 µM): 0.989 | relative viability (HCC-366; first compound 0.2 µM): 1.27 | relative viability (HCC-366; first compound 0.6325 µM): 0.959 | relative viability (HCC-366; first compound 6.325 µM): 0.981 | relative viability (HCC-366; first compound 20 µM): 0.024 | relative viability (IA-LM; first compound 0.2 µM): 0.657 | relative viability (IA-LM; first compound 0.6325 µM): 0.769 | relative viability (IA-LM; first compound 2 µM): 0.714 | relative viability (IA-LM; first compound 6.325 µM): 0.949 | relative viability (IA-LM; first compound 20 µM): 0.806 | relative viability (NCI-H1299; first compound 0.2 µM): 1.14 | relative viability (NCI-H1299; first compound 0.6325 µM): 1.04 | relative viability (NCI-H1299; first compound 2 µM): 1.05 | relative viability (NCI-H1299; first compound 6.325 µM): 1.11 | relative viability (NCI-H1299; first compound 20 µM): 1.04 | relative viability (NCI-H1703; first compound 0.2 µM): 1.43 | relative viability (NCI-H1703; first compound 0.6325 µM): 0.891 | relative viability (NCI-H1703; first compound 2 µM): 1.18 | relative viability (NCI-H1703; first compound 6.325 µM): 1.21 | relative viability (NCI-H1703; first compound 20 µM): 0.0405 | relative viability (NCI-H1915; first compound 0.2 µM): 0.766 | relative viability (NCI-H1915; first compound 0.6325 µM): 0.586 | relative viability (NCI-H1915; first compound 2 µM): 0.642 | relative viability (NCI-H1915; first compound 6.325 µM): 0.773 | relative viability (NCI-H1915; first compound 20 µM): 0.778 | relative viability (NCI-H838; first compound 0.2 µM): 1.38 | relative viability (NCI-H838; first compound 0.6325 µM): 1.12 | relative viability (NCI-H838; first compound 2 µM): 1.23 | relative viability (NCI-H838; first compound 6.325 µM): 1.23 | relative viability (NCI-H838; first compound 20 µM): 1.15
